{"source": "patent US12233128B2", "about": "“Degraders that target ALK and therapeutic uses thereof” (DANA-FARBER CANCER INSTITUTE, INC., priority 2018, dated 2025)", "format_in_all_cases": "cell-based", "key": {"[1]": {"tested_on": "EML4-ALK with secondary mutations L1196M, C1156Y, or G1202R", "experiment": "CellTiter-Glo cell viability, ALK-positive Ba/F3 cells with EML4-ALK secondary mutations", "conditions": "72 hours, FIG. 1A", "method": "(§1) CellTiter-Glo®: Cell viability was evaluated using the CellTiter-Glo® Luminescent Cell Viability Assay (Promega™) following the manufacturer's standards. 12-point dose titrations were tested in triplicate from 10000 nM to 0.056 nM over 72 hours. Anti-proliferative best fit EC50 values with 95% CI are shown as calculated by Graphpad Prism™ 7 software."}, "FAK (PTK2)": {"target": "T1, FAK (PTK2) (Homo sapiens, UniProt Q05397)", "T1 construct": "endogenous in cells; host or cells: H3122", "experiment": "Western blot, off target degradation of PTK2 in H3122 cells", "method": "(§2) Blotting: Cells were washed with PBS before being lysed with Cell Lysis Buffer (Cell Signaling Technology®) supplemented with protease and phosphatase inhibitor cocktails (Roche™) at 4° C. for 15 minutes. The cell lysate was vortexed every 5 minutes over a 30-minute period before being centrifuged at 14,000×g for 20 min at 4° C. Protein in cell lysate was quantified by BCA assay (Pierce™). Primary antibodies used in this study include ALK (Cell Signaling Technology®, D5F3), Aurora A (Cell Signaling Technology®, 1F8), FAK (PTK2) (Cell Signaling Technology®, #3285), and GAPDH (Cell Signaling Technology®, 14C10). Blot quantification was performed using Image Studio™ 4.0 software, normalizing to loading control (GAPDH)."}, "Aurora A": {"target": "T2, Aurora A (Homo sapiens, UniProt O14965)", "T2 construct": "ALK and aurora A degradation in H3122 cells; endogenous in cells; host or cells: H3122", "T2 sequence (O14965 1-403)": "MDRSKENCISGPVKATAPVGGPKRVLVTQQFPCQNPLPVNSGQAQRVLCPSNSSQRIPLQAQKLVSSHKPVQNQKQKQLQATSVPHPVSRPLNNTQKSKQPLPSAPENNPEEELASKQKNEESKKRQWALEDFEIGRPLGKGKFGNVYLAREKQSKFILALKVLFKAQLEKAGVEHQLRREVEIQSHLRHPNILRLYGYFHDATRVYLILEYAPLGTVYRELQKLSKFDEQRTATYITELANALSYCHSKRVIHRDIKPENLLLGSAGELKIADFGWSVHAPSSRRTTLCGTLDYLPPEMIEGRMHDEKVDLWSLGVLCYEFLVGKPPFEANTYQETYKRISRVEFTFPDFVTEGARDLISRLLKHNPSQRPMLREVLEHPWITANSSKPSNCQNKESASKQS", "experiment": "Western blot, off target degradation of Aurora A in H3122 cells", "conditions": "16-hour treatment, 0.01-1 μM", "method": "as §2"}, "ALK": {"target": "T3, ALK (Homo sapiens, UniProt Q9UM73)", "T3 construct": "EML4 N-terminal fusion partner (human entry Q9HC35); endogenous in cells; host or cells: H3122; the other entry of the earlier key: EML4 (Q9HC35, Echinoderm microtubule-associated protein-like 4)", "T3 sequence (Q9UM73 with tags, fused parts or gaps)": "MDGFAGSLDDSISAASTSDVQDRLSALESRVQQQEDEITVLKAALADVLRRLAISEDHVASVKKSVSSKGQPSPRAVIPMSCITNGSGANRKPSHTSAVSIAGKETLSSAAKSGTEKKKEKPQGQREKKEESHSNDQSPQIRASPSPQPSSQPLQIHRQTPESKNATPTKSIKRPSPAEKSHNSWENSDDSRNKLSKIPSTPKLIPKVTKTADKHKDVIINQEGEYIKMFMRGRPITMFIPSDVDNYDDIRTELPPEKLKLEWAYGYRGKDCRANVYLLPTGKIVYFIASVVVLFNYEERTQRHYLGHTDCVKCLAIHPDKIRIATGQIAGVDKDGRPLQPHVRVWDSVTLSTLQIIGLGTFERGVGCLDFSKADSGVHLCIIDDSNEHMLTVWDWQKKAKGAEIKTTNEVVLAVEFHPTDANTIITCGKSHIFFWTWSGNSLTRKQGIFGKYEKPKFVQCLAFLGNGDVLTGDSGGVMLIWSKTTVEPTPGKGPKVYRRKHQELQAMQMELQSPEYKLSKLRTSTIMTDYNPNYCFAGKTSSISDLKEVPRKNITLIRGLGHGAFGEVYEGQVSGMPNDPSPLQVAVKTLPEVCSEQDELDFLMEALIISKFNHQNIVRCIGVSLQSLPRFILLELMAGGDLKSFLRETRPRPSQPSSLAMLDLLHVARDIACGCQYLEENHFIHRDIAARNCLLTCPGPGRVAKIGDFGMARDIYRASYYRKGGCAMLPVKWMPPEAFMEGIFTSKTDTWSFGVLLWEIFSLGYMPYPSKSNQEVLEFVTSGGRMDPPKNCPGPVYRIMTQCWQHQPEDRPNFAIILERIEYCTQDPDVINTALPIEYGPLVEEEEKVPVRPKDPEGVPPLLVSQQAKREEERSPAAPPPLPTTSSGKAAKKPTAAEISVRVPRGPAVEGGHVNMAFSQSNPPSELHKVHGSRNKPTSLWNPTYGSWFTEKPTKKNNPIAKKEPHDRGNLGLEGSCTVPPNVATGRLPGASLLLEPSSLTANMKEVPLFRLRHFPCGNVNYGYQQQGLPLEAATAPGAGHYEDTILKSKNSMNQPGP", "experiment": "Western blot, degradation of ALK in H3122 cells", "conditions": "for degradation of ALK: 16-hour treatment, 0.01-1 μM", "method": "as §2"}, "H3122 cells": {"tested_on": "H3122 cells", "experiment": "CellTiter-Glo cell viability, anti-proliferative activity in H3122 cells", "conditions": "72 hours, FIG. 1A", "method": "as §1"}, "[2]": {"tested_on": "EML4-ALK expressing cell lines", "experiment": "CellTiter-Glo cell viability, EML4-ALK expressing cell lines", "conditions": "72 hours, FIG. 2A / 3A", "method": "as §1\nThe experimental protocol was as in Example 15."}}, "data": [{"smiles": "CCc1cc2c(cc1N1CCC(N3CCN(C(=O)CCOCCOCCOCCOCCNc4cccc5c4C(=O)N(C4CCC(=O)NC4=O)C5=O)CC3)CC1)C(C)(C)c1[nH]c3cc(C#N)ccc3c1C2=O", "note": "(stereo not shown) [Compound 1, 8-(4-(4-(1-((2-(2,6-dioxopiperidin-3-yl)-1,3-dioxoisoindolin-4-yl)amino)-3,6,9,12-tetraoxapentadecan-15-oyl)piperazin-1-yl)piperidin-1-yl)-9-ethyl-6,6-dimethyl-11-oxo-6,11-dihydro-5H-benzo[b]carbazole-3-carbonitrile]", "values": [{"measurement": "activity against EML4-ALK with secondary mutations L1196M, C1156Y, or G1202R", "setting": "[1]", "result": "comparable to the parental inhibitor alectinib"}, {"measurement": "off target degradation of PTK2", "setting": "FAK (PTK2); 16-hour treatment, 0.01-1 μM", "result": "very low"}, {"measurement": "off target degradation of Aurora A", "setting": "Aurora A", "result": "Off target degradation of Aurora A was also seen"}, {"measurement": "degradation of ALK", "setting": "ALK", "result": "ability to degrade ALK in a dose dependent manner"}, {"measurement": "anti-proliferative activity in H3122 cells", "setting": "H3122 cells", "result": "comparable to compound 12"}]}, {"smiles": "CCc1cc2c(cc1N1CCC(N3CCN(C(=O)CCOCCOCCNc4cccc5c4C(=O)N(C4CCC(=O)NC4=O)C5=O)CC3)CC1)C(C)(C)c1[nH]c3cc(C#N)ccc3c1C2=O", "note": "(stereo not shown) [Compound 2, 8-(4-(4-(3-(2-(2-((2-(2,6-dioxopiperidin-3-yl)-1,3-dioxoisoindolin-4-yl)amino)ethoxy)ethoxy)propanol)piperazin-1-yl)piperidin-1-yl)-9-ethyl-6,6-dimethyl-11-oxo-6,11-dihydro-5H-benzo[b]carbazole-3-carbonitrile]", "values": [{"measurement": "activity against EML4-ALK with secondary mutations L1196M, C1156Y, or G1202R", "setting": "[1]", "result": "comparable to the parental inhibitor alectinib"}, {"measurement": "off target degradation of PTK2", "setting": "FAK (PTK2); 16-hour treatment, 0.01-1 μM", "result": "very low"}, {"measurement": "off target degradation of Aurora A", "setting": "Aurora A", "result": "Off target degradation of Aurora A was also seen"}, {"measurement": "degradation of ALK", "setting": "ALK", "result": "ability to degrade ALK in a dose dependent manner"}, {"measurement": "anti-proliferative activity in H3122 cells", "setting": "H3122 cells", "result": "comparable to compound 12"}]}, {"smiles": "CCc1cc2c(cc1-c1cnn(CC(=O)NCCOCCOCCNc3cccc4c3C(=O)N(C3CCC(=O)NC3=O)C4=O)c1)C(C)(C)c1[nH]c3cc(C#N)ccc3c1C2=O", "note": "(stereo not shown) [Compound 4, 2-(4-(3-cyano-9-ethyl-6,6-dimethyl-11-oxo-6,11-dihydro-5H-benzo[b]carbazol-8-yl)-1H-pyrazol-1-yl)-N-(2-(2-(2-((2-(2,6-dioxopiperidin-3-yl)-1,3-dioxoisoindolin-4-yl)amino)ethoxy)ethoxy)ethyl)acetamide]", "values": [{"measurement": "degradation of ALK", "setting": "ALK", "result": "did not degrade ALK to a significant extent"}]}, {"smiles": "CCc1cc2c(cc1-c1cnn(CC(=O)NCCOCCOCCOCCOCCOCCOCCNc3cccc4c3C(=O)N(C3CCC(=O)NC3=O)C4=O)c1)C(C)(C)c1[nH]c3cc(C#N)ccc3c1C2=O", "note": "(stereo not shown) [Compound 5, 2-(4-(3-cyano-9-ethyl-6,6-dimethyl-11-oxo-6,11-dihydro-5H-benzo[b]carbazol-8-yl)-1H-pyrazol-1-yl)-N-(20-((2-(2,6-dioxopiperidin-3-yl)-1,3-dioxoisoindolin-4-yl)amino)-3,6,9,12,15,18-hexaoxaicosyl)acetamide]", "values": [{"measurement": "anti-proliferative activity in EML4-ALK expressing cell lines", "setting": "[2]", "result": "slightly better activity than the other members of this group"}, {"measurement": "degradation of ALK", "setting": "ALK", "result": "significant degradation of ALK"}]}, {"smiles": "CCc1cc2c(cc1-c1cnn(CC(=O)NCCOCCOCCOCCOCCNc3cccc4c3C(=O)N(C3CCC(=O)NC3=O)C4=O)c1)C(C)(C)c1[nH]c3cc(C#N)ccc3c1C2=O", "note": "(stereo not shown) [Compound 6, 2-(4-(3-cyano-9-ethyl-6,6-dimethyl-11-oxo-6,11-dihydro-5H-benzo[b]carbazol-8-yl)-1H-pyrazol-1-yl)-N-(14-((2-(2,6-dioxopiperidin-3-yl)-1,3-dioxoisoindolin-4-yl)amino)-3,6,9,12-tetraoxatetradecyl)acetamide]", "values": [{"measurement": "degradation of ALK", "setting": "ALK", "result": "did not degrade ALK to a significant extent"}]}, {"smiles": "CCc1cc2c(cc1-c1cnn(CC(=O)N(C)CCOCCOCCOCCNc3cccc4c3C(=O)N(C3CCC(=O)NC3=O)C4=O)c1)C(C)(C)c1[nH]c3cc(C#N)ccc3c1C2=O", "note": "(stereo not shown) [Compound 8, 2-(4-(3-cyano-9-ethyl-6,6-dimethyl-11-oxo-6,11-dihydro-5H-benzo[b]carbazol-8-yl)-1H-pyrazol-1-yl)-N-(2-(2-(2-(2-((2-(2,6-dioxopiperidin-3-yl)-1,3-dioxoisoindolin-4-yl)amino)ethoxy)ethoxy)ethoxy)ethyl)-N-methylacetamide]", "values": [{"measurement": "degradation of PTK2", "setting": "FAK (PTK2); 16-hour treatment, 1 μM", "result": "slight degradation of PTK2"}, {"measurement": "off target degradation of Aurora A", "setting": "Aurora A", "result": "off target degradation of aurora A was still seen at higher doses"}]}, {"smiles": "Cc1cc(Nc2ncc(Cl)c(Nc3ccccc3S(=O)(=O)C(C)C)n2)c(OC(C)C)cc1C1CCN(CCOCCOCCNC(=O)CNc2cccc3c2C(=O)N(C2CCC(=O)NC2=O)C3=O)CC1", "note": "(stereo not shown) [Compound 12, N-(2-(2-(2-(4-(4-((5-Chloro-4-((2-(isopropylsulfonyl)phenyl)-amino)pyrimidin-2-yl)amino)-5-isopropoxy-2-methylphenyl)-piperidin-1yl)ethoxy)ethoxy)ethyl)-2-((2-(2,6-dioxopiperidin-3-yl)-1,3-dioxoisoindolin-4-yl)amino)acetamide]", "values": [{"measurement": "off target degradation of PTK2", "setting": "FAK (PTK2); time course, 100 nM", "result": "off target degradation activity against PTK2 that was seen"}, {"measurement": "time at which ALK degradation is seen", "setting": "ALK; time course, 100 nM", "result": "around 4 hours"}, {"measurement": "time of maximum ALK degradation", "setting": "ALK; time course, 100 nM", "result": "around 8 hours"}]}]}
